Experimental data as given in US8497083B2, “Fructosyl amino acid oxidase” (priority 2009, dated 2013).

Experiments:
[1] = target: T1, fructosyl amino acid oxidase from Phaeosphaeria nodorum (PnFPOX, SEQ ID NO: 1) variant N56A (Parastagonospora nodorum, UniProt Q0UIL6, N56A); experiment: Dehydrogenase activity kinetics (mPMS/DCIP), PnFPOX N56A mutant; assay type: biochemical; details: purified enzyme, 25° C., pH 7.0
From the text: As used herein, “dehydrogenase activity” is an enzymatic activity (Vmax) of the fructosyl amino acid oxidase to catalyze oxidation of fructosyl amino acid to generate 2-keto-D-glucose and the corresponding amino acid while utilizing an electron mediator other than oxygen as an electron acceptor. The dehydrogenase activity may be assayed by measuring the amount of electrons transferred to the mediator using, for example, one of mPMS/DCIP (1-methoxy-5-methylphenazinium methylsulfate/2,6-dichloroindophenol), cPES (trifluoro-acetate-1-(3-carboxy-propoxy)-5-ethyl-phenanzinium, NA BM31—1144 (N,N-bis-(hydroxyethyl)-3-methoxynitrosoaniline hydrochloride, NA BM31—1008 (N,N-bis-hydroxyethyl-4-nitrosoaniline) and N—N-4-dimethyl-nitrosoaniline.
As used herein in the context of the relative or quantitative activity, the dehydrogenase activity is specifically defined to be the mole amount of the substrate (fructosyl amino acid) oxidized per unit time measured by the amount of electrons transferred to the mediator at 25° C. in 10 mM PPB (pH 7.0), 0.6 mM DCIP, and 6 mM methoxy PMS (mPMS).
(§1) Escherichia coli BL21 (DE3) cells harboring expression vectors of N1-1 FAOD (SEQ ID NO: 2) mutants were grown in 150 ml of LB medium containing 50 μg/ml kanamycin at 37° C. After reaching an A660 value of 0.6, 0.3 mM IPTG was added and incubated at 25° C. for an additional 5 hours. The cells were collected by centrifugation and washed twice with 0.85% NaCl.aq. Then, the cells were resuspended in 10 mM Potassium Phosphate Buffer (PPB) pH 7.0 and lysed by ultrasonic homogenizer. The lysate was centrifuged at 10,000×g, 4° C. for 10 min, and the supernatant was centrifuged at 50,000 rpm, 4° C. for 60 min, then the supernatant was dialyzed against 10 mM PPB (pH 7.0). The oxidase activity was assayed at 25° C. in 10 mM PPB, pH 7.0, 1.5 mM TODB, 2 U/ml horseradish peroxidase (POD), and 1.5 mM 4-aminoantipyrine (4AA) in the presence of substrates (0.2, 0.5, 0.75, 1, 2, 5 mM f-^αVal […]). The formation of quinoneimine dye was measured spectrophotometrically at 546 nm. The dehydrogenase activity was assayed at 25° C. in 10 mM PPB (pH 7.0), 0.6 mM DCIP, and 6 mM methoxy PMS (mPMS) in the presence of substrates (0.2, 0.5, 1, 2, 5 mM f-^αVal or 5 mM f-^αVal-His).
Mutations were introduced using site-directed mutagenesis as in Example 1, and BL21 (DE3) cells were transformed with an expression vector containing wild-type or mutant PnFPOX (SEQ ID NO: 1). The cultured cells were resuspended in 10 mM PPB, pH 7.0, and lysed by sonication. The lysate was centrifuged at 10,000 g at 4° C. for 20 min, and the supernatant was centrifuged at 50,000 rpm at 4° C. for 60 min. The oxidase and dehydrogenase activities were measured as in Example 1. […]

[2] = target: T1, fructosyl amino acid oxidase from Phaeosphaeria nodorum (PnFPOX, SEQ ID NO: 1) variant N56A; experiment: Oxidase activity kinetics (4AA/TODB/POD), PnFPOX N56A mutant; assay type: biochemical; details: purified enzyme, 25° C., pH 7.0
From the text: As used herein “oxidase activity” is an enzymatic activity (Vmax) of the fructosyl amino acid oxidase to catalyze oxidation of fructosyl amino acid to generate 2-keto-D-glucose and the corresponding amino acid while utilizing oxygen as an electron acceptor. The oxidase activity may be assayed by measuring the amount of generated H2O2 by any methods known in the art, including by way of non-limiting example, reagents for H2O2 detection such as […] (4-aminoantipyrine/N,N-Bis(4-sulfobutyl)-3-methylaniline disodium salt/horseradish peroxidase) or by Pt electrode. As used herein in the context of the relative or quantitative activity, the oxidase activity is specifically defined to be the mole amount of the substrate (fructosyl amino acid) oxidized per unit time measured by the amount of generated H2O2 at 25° C. in 10 mM PPB, pH 7.0, 1.5 mM TODB, 2 U/ml horseradish peroxidase (POD), and 1.5 mM 4-aminoantipyrine (4AA). The formation of quinoneimine dye may be measured spectrophotometrically at 546 nm.
as §1
Mutations were introduced using site-directed mutagenesis as in Example 1, and BL21 (DE3) cells were transformed with an expression vector containing wild-type or mutant PnFPOX (SEQ ID NO: 1). The cultured cells were resuspended in 10 mM PPB, pH 7.0, and lysed by sonication. The lysate was centrifuged at 10,000 g at 4° C. for 20 min, and the supernatant was centrifuged at 50,000 rpm at 4° C. for 60 min. The oxidase and dehydrogenase activities were measured as in Example 1.
BL21 (DE3) transformed with pEPN (pET28a-PnFPOX)-N56A was grown aerobically at 37° C. in LB medium (2 l) containing 50 μg kanamycin ml^−1. […]

T1 sequence (Q0UIL6 whole entry N56A): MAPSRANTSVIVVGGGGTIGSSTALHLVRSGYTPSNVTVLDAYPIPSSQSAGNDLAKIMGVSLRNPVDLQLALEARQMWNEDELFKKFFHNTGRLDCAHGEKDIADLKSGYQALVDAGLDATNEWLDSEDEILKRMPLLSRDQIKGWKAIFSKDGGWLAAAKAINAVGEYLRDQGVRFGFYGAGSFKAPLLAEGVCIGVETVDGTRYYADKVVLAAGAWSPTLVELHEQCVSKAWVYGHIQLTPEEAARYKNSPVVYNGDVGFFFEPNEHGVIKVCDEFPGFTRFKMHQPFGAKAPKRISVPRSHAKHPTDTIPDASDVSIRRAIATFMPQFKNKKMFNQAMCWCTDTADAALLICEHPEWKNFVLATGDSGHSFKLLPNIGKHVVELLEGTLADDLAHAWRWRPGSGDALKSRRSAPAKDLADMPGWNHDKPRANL

Compound: CC(C)[C@H](NCC1(O)OC[C@@H](O)[C@@H](O)[C@@H]1O)C(=O)O (some centres unmarked) [f-αVal, fructosyl valine]
- Vmax [1]: 95.1 U/mg
- Vmax [2]: 4.39 U/mg
